How the values were obtained:
Type in all cases: physicochemical
[1] = Interfacial tension of a PEG 600 drop in CO2/surfactant solution via pendant drop technique; conditions: for Interfacial Tension IFT: PEG (600) drop, 2 weight % Surfynol/CO2 solution
Excerpt: Interfacial activity can be monitored using the 'pendant drop' technique, ("Chemistry of Interfaces" M.J.Jaycock & Parfitt, John Wiley and Sons, New York p49-51). This method is utilized to measure the interfacial tension between a pendant drop and a continuous phase that surrounds the drop. When carbon dioxide is used as the continuous media, special high pressure equipment with sapphire view ports is required to maintain a solution of CO2 and surfactant, and to study the change in shape of the pendant drop for interfacial tension calculations. A general procedure for these high pressure phase behavior measurements may be found in Langmuir, vol. 10 1994, pg 3536-3541, by K. Harrison, K. P. Johnston, J. Goveas and E. A. O ? Rear.
Various ethoxylates of 2,4,7,9-tetramethyl-5-decyn-4,7-diol were used in the interfacial tension study. Table 3 gives the interfacial tension observed for ethoxylates of 2,4,7,9-tetramethyl-5-decyn-4,7-diol containing 20, 40, and 65 wt% ethylene oxide. The table also gives the interfacial tension of the polyethyleneglycol (PEG 600)drop within the pure CO2 media. […] It is interesting to note the actual reduction in interfacial tension. For a control PEG 600 drop at 2510 psi the interfacial tension was measured to be 3.39 dyne/cm (run #5in Table 3). […] This corresponds to lowering the interfacial tension by 0.54 dyne/cm, a 16% reduction. A surfactant/CO2 solution of 2 weight % (using the 40 wt% ethoxylated Surfynol surfactant) gave an interfacial tension of 1.57 dyne/cm. at a CO2 pressure of 4030 psi (run #33in Table 3). The corresponding PEG drop at 4093psi used as the control gave an interfacial tension of 1.92dyne/cm (run #18 in Table 3).

[2] = Solubility in CO2 by cloud point determination in a variable volume view cell; set-up: Pressure Describing Cloud Point Determinations For Surfactant/CO2 Concentrations / Pressure Describing Cloud Point Determinations For Surfactant/CO2Concentrations: unit not given here
Description: In the following examples, mixtures of acetylenic alcohols or diols and CO2 were prepared by adding the acetylenic alcohol or diol to a stainless steel variable volume view cell equiped with suitable relief devices, high pressure valves CO2 inlet and outlet and a sapphire window at one end. A high pressure syringe pump (High Pressure Products, HIP pump) was filled with liquid CO2 and used to quantitiatively add CO2 to the pressure vessel. The pressure vessel contained a magnetic stirrer and was stirred via a magnetic couple to a magnet located below the vessel.
A weighed amount of surfactant (0.5-10 weight %) was placed inside the cell chamber in front of the piston. The cell window was attached and 10 cc ? s of CO2, was added to the cell. The surfactant was mixed in the CO2 using a magnetic stirring bar. The cell was mounted in horizontally and then immersed in a water bath. After allowing the high pressure cell to attain thermal equilibrium the pressure within the cell was varied using a floating piston. The pressure was changed to monitor the cloud point as being indicative of insolubility. The operator viewed the floating piston through the sapphire window using a suitable optic device, the onset of insolubility was taken when the translucent solution changed to an orange/brown color due to the Tindall light scattering of the insoluble droplets. The onset of insolubility was checked several times by varying the pressure using the high pressure syringe pump.
A water bath was used to vary the temperature for each concentration. On completing the solubility studies at one concentration and one temperature series, a calibrated injector loop attached to the high pressure cell was filled with the surfactant via a syringe. Utilizing a six way valve to help inject this fixed amount of surfactant, the surfactant concentration within the high pressure cell was increased by a fixed increment. The solubility studies for this new CO2/surfactant concentration were measured at various temperatures in a similar manner to that previously described.

[3] = PEG (MW=600) uptake by surfactant/CO2 mixture (phase behavior, cloud point); conditions: Wt% Surfactant in CO2 0.897%
[4] = 2 weight % in CO2 at 2501 psi vs control PEG 600 drop at 2510 psi

Ethoxylated 2,4,7,9-Tetramethyl-5-decyn-4,7-diol [AP-420]
lowering the interfacial tension [1, 4]: 0.54 dyne/cm | reduction in interfacial tension [1, 4]: 16% | Interfacial Tension IFT ([1]; 1984 psi (137 bar)): 3.45 dyne/cm | Interfacial Tension IFT ([1]; 2140 psi (148 bar)): 3.05 dyne/cm | Interfacial Tension IFT ([1]; 2498 psi (172 bar)): 2.75 dyne/cm | Interfacial Tension IFT ([1]; 2501 psi (173 bar)): 2.85 dyne/cm | Interfacial Tension IFT ([1]; 3007 psi (207 bar)): 2.32 dyne/cm | Interfacial Tension IFT ([1]; 3574 psi (246 bar)): 1.83 dyne/cm | Pressure Describing Cloud Point Determinations For Surfactant/CO2Concentrations ([2]; Surfactant Concn. in CO2 1.3646 wt%, 25°C): 1410 | Pressure Describing Cloud Point Determinations For Surfactant/CO2Concentrations ([2]; Surfactant Concn. in CO2 1.3646 wt%, 35°C): 2040 | Pressure Describing Cloud Point Determinations For Surfactant/CO2Concentrations ([2]; Surfactant Concn. in CO2 1.3646 wt%, 60°C): 3060 | Pressure Describing Cloud Point Determinations For Surfactant/CO2Concentrations ([2]; Surfactant Concn. in CO2 2.6028 wt%, 35°C): 2710 | Pressure Describing Cloud Point Determinations For Surfactant/CO2Concentrations ([2]; Surfactant Concn. in CO2 2.6028 wt%, 60°C): 4040 | Pressure Describing Cloud Point Determinations For Surfactant/CO2Concentrations ([2]; Surfactant Concn. in CO2 2.6028 wt%, 65°C): 4330 | Pressure Describing Cloud Point Determinations For Surfactant/CO2Concentrations ([2]; Surfactant Concn. in CO2 3.2104 wt%, 35°C): 2990 | Pressure Describing Cloud Point Determinations For Surfactant/CO2Concentrations ([2]; Surfactant Concn. in CO2 3.2104 wt%, 60°C): 3950 | Pressure Describing Cloud Point Determinations For Surfactant/CO2Concentrations ([2]; Surfactant Concn. in CO2 3.2104 wt%, 65°C): 4330 | Pressure Describing Cloud Point Determinations For Surfactant/CO2Concentrations ([2]; Surfactant Concn. in CO2 3.8330 wt%, 25°C): 1870 | Pressure Describing Cloud Point Determinations For Surfactant/CO2Concentrations ([2]; Surfactant Concn. in CO2 3.8330 wt%, 45°C): 2860 | Pressure Describing Cloud Point Determinations For Surfactant/CO2Concentrations ([2]; Surfactant Concn. in CO2 3.8330 wt%, 65°C): 3770 | surfactant is soluble in CO2 ([2]; in CO2): up to 4 wt%

C#CC(C)(O)CC(C)C (stereo not drawn) [3,5-dimethyl-1-hexyn-3-ol]
Pressure Describing Cloud Point Determinations For Surfactant/CO2 Concentrations ([2]; Surfactant Concn. in CO2 0.50 wt%, 35°C): 1480 | Pressure Describing Cloud Point Determinations For Surfactant/CO2 Concentrations ([2]; Surfactant Concn. in CO2 0.50 wt%, 45°C): 1800 | Pressure Describing Cloud Point Determinations For Surfactant/CO2 Concentrations ([2]; Surfactant Concn. in CO2 0.50 wt%, 55°C): 2200 | Pressure Describing Cloud Point Determinations For Surfactant/CO2 Concentrations ([2]; Surfactant Concn. in CO2 1.50 wt%, 35°C): 1530 | Pressure Describing Cloud Point Determinations For Surfactant/CO2 Concentrations ([2]; Surfactant Concn. in CO2 1.50 wt%, 45°C): 1900 | Pressure Describing Cloud Point Determinations For Surfactant/CO2 Concentrations ([2]; Surfactant Concn. in CO2 1.50 wt%, 55°C): 2260 | Pressure Describing Cloud Point Determinations For Surfactant/CO2 Concentrations ([2]; Surfactant Concn. in CO2 2.50 wt%, 35°C): 1500 | Pressure Describing Cloud Point Determinations For Surfactant/CO2 Concentrations ([2]; Surfactant Concn. in CO2 2.50 wt%, 45°C): 1860 | Pressure Describing Cloud Point Determinations For Surfactant/CO2 Concentrations ([2]; Surfactant Concn. in CO2 2.50 wt%, 55°C): 2210 | Pressure Describing Cloud Point Determinations For Surfactant/CO2 Concentrations ([2]; Surfactant Concn. in CO2 5.00 wt%, 35°C): 1380 | Pressure Describing Cloud Point Determinations For Surfactant/CO2 Concentrations ([2]; Surfactant Concn. in CO2 5.00 wt%, 45°C): 1770 | Pressure Describing Cloud Point Determinations For Surfactant/CO2 Concentrations ([2]; Surfactant Concn. in CO2 5.00 wt%, 55°C): 2120 | Pressure Describing Cloud Point Determinations For Surfactant/CO2 Concentrations ([2]; Surfactant Concn. in CO2 7.60 wt%, 35°C): 1280 | Pressure Describing Cloud Point Determinations For Surfactant/CO2 Concentrations ([2]; Surfactant Concn. in CO2 7.60 wt%, 45°C): 1680 | Pressure Describing Cloud Point Determinations For Surfactant/CO2 Concentrations ([2]; Surfactant Concn. in CO2 7.60 wt%, 55°C): 2030 | Pressure Describing Cloud Point Determinations For Surfactant/CO2 Concentrations ([2]; Surfactant Concn. in CO2 10.20 wt%, 35°C): 1200 | Pressure Describing Cloud Point Determinations For Surfactant/CO2 Concentrations ([2]; Surfactant Concn. in CO2 10.20 wt%, 45°C): 1590 | Pressure Describing Cloud Point Determinations For Surfactant/CO2 Concentrations ([2]; Surfactant Concn. in CO2 10.20 wt%, 55°C): 1950 | solubility levels by weight to CO2 ([2]; in CO2): 10.2 % by weight

Ethoxylated 2,4,7,9-Tetramethyl-5-decyn-4,7-diol [AP-440]
Wt% of PEG (MW=600) uptake ([3]; 4040 psi 25°C): 1.091% | Wt% of PEG (MW=600) uptake ([3]; 4550 psi 25°C): 1.360% | Wt% of PEG (MW=600) uptake ([3]; 5220 psi 25°C): 1.627% | reduction in interfacial tension ([1]; 2 weight % in CO2 at 4030 psi vs control PEG drop at 4093psi): 18.2% | Interfacial Tension IFT ([1]; 3146 psi (217 bar)): 2.04 dyne/cm | Interfacial Tension IFT ([1]; 3522 psi (243 bar)): 1.96 dyne/cm | Interfacial Tension IFT ([1]; 3536 psi (244 bar)): 1.93 dyne/cm | Interfacial Tension IFT ([1]; 4028 psi (278 bar)): 1.56 dyne/cm | Interfacial Tension IFT ([1]; 4030 psi (278 bar)): 1.57 dyne/cm | Interfacial Tension IFT ([1]; 4568 psi (315 bar)): 1.38 dyne/cm | Interfacial Tension IFT ([1]; 4592 psi (317 bar)): 1.35 dyne/cm | Pressure Describing Cloud Point Determinations For Surfactant/CO2Concentrations ([2]; Surfactant Concn. in CO2 0.6159 wt%, 25°C): 1200 | Pressure Describing Cloud Point Determinations For Surfactant/CO2Concentrations ([2]; Surfactant Concn. in CO2 0.6159 wt%, 45°C): 1750 | Pressure Describing Cloud Point Determinations For Surfactant/CO2Concentrations ([2]; Surfactant Concn. in CO2 1.2484 wt%, 25°C): 1840 | Pressure Describing Cloud Point Determinations For Surfactant/CO2Concentrations ([2]; Surfactant Concn. in CO2 1.2484 wt%, 35°C): 2610 | Pressure Describing Cloud Point Determinations For Surfactant/CO2Concentrations ([2]; Surfactant Concn. in CO2 1.8749 wt%, 60°C): 3740 | Pressure Describing Cloud Point Determinations For Surfactant/CO2Concentrations ([2]; Surfactant Concn. in CO2 2.8386 wt%, 25°C): 2580 | Pressure Describing Cloud Point Determinations For Surfactant/CO2Concentrations ([2]; Surfactant Concn. in CO2 2.8386 wt%, 45°C): 4300 | Pressure Describing Cloud Point Determinations For Surfactant/CO2Concentrations ([2]; Surfactant Concn. in CO2 2.8386 wt%, 60°C): 4510 | Pressure Describing Cloud Point Determinations For Surfactant/CO2Concentrations ([2]; Surfactant Concn. in CO2 4.0446 wt%, 25°C): 2700 | Pressure Describing Cloud Point Determinations For Surfactant/CO2Concentrations ([2]; Surfactant Concn. in CO2 4.0446 wt%, 35°C): 3740 | Pressure Describing Cloud Point Determinations For Surfactant/CO2Concentrations ([2]; Surfactant Concn. in CO2 4.0446 wt%, 45°C): 4440 | Pressure Describing Cloud Point Determinations For Surfactant/CO2Concentrations ([2]; Surfactant Concn. in CO2 4.0446 wt%, 60°C): 4670

From patent EP0830890A1, “Surfactants for use in liquid/supercritical CO2” (AIR PRODUCTS AND CHEMICALS, INC., priority 1996, dated 1998)
